Results reported in ChEMBL document CHEMBL1201862, “PubChem BioAssay data set” (2004).
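In this assay, cells in 96-well plates receive the compound at five concentrations for 48 hours. Endpoints are linearly interpolated between the surrounding concentrations. GI50 = concentration required for 50% inhibition of growth.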 Calls of active or inactive are those of the source. No stated cut-off is given here; in the data, active = GI50 up to about 1.1 µM and inactive = higher.

Columns and labels:
Assay in all cases: NCI anticancer screen, dose series, 48 h
[1] = system: SF-295
[2] = system: OVCAR-8
[3] = system: OVCAR-3
[4] = system: M14
[5] = system: NCI-H522
[6] = system: SR
[7] = system: NCI/ADR-RES
[8] = system: EKVX
[9] = system: OVCAR-5
[10] = system: U-251
[11] = system: NCI-H460
[12] = system: MDA-MB-231
[13] = system: A549
[14] = system: SN12C
[15] = system: HT-29
[16] = system: RXF 393
[17] = system: MOLT-4
[18] = system: UO-31
[19] = system: SK-MEL-5
[20] = system: T47D

SMILES	GI50 [1]	GI50 [2]	GI50 [3]	GI50 [4]	GI50 [5]	GI50 [6]	GI50 [7]	GI50 [8]	GI50 [9]	GI50 [10]	GI50 [11]	GI50 [12]	GI50 [13]	GI50 [14]	GI50 [15]	GI50 [16]	GI50 [17]	GI50 [18]	GI50 [19]	GI50 [20]
COC(CN(C(C)=O)C1CCC2(SCCS2)c2[nH]c3ccccc3c21)OC (stereo not drawn)	0.207 µM (active)	> 100 µM (inactive)	> 100 µM (inactive)	> 100 µM (inactive)	> 100 µM (inactive)	57.9 µM (inactive)	> 100 µM (inactive)	72.1 µM (inactive)	> 100 µM (inactive)	> 100 µM (inactive)	> 100 µM (inactive)	> 100 µM (inactive)	> 100 µM (inactive)	> 100 µM (inactive)	> 100 µM (inactive)	38.6 µM (inactive)	60.8 µM (inactive)	> 100 µM (inactive)	> 100 µM (inactive)	
CCn1ncc2c1nc(-c1ccccc1)c[n+]2[O-]	> 100 µM (inactive)	75 µM (inactive)	> 100 µM (inactive)	77.6 µM (inactive)	90.4 µM (inactive)	> 100 µM (inactive)	> 100 µM (inactive)	> 100 µM (inactive)	> 100 µM (inactive)		> 100 µM (inactive)		> 100 µM (inactive)	> 100 µM (inactive)	> 100 µM (inactive)		> 100 µM (inactive)	62.8 µM (inactive)		> 100 µM (inactive)
COC(=O)c1ccc(NCC2=C(Br)C(=O)C=CC2=O)cc1Cl	40.1 µM (inactive)	19.3 µM (inactive)	13.9 µM (inactive)	18.2 µM (inactive)	6.43 µM (inactive)		23.2 µM (inactive)	14.1 µM (inactive)	21.8 µM (inactive)	22.8 µM (inactive)	17.2 µM (inactive)	18.3 µM (inactive)	> 100 µM (inactive)	16.5 µM (inactive)	17.7 µM (inactive)		17.7 µM (inactive)	16.4 µM (inactive)	20.1 µM (inactive)	20 µM (inactive)
CC1(C)CC2C(/C1=N/O)C1(C)CCCC2(C)C1O (stereo not drawn)	> 100 µM (inactive)	> 100 µM (inactive)	> 100 µM (inactive)	> 100 µM (inactive)	> 100 µM (inactive)	> 100 µM (inactive)	> 100 µM (inactive)	> 100 µM (inactive)	> 100 µM (inactive)	> 100 µM (inactive)	> 100 µM (inactive)		> 100 µM (inactive)	> 100 µM (inactive)	> 100 µM (inactive)		> 100 µM (inactive)	> 100 µM (inactive)	> 100 µM (inactive)	> 100 µM (inactive)
CC(C)(C)c1ccc2c(c1)C#Cc1cc3c(cc1OCCCO2)C#Cc1cc(C(C)(C)C)ccc1OCCCO3	> 100 µM (inactive)	> 100 µM (inactive)	> 100 µM (inactive)	> 100 µM (inactive)	> 100 µM (inactive)		10.6 µM (inactive)	> 100 µM (inactive)	> 100 µM (inactive)	> 100 µM (inactive)	> 100 µM (inactive)	> 100 µM (inactive)	> 100 µM (inactive)	> 100 µM (inactive)	> 100 µM (inactive)	> 100 µM (inactive)	> 100 µM (inactive)		> 100 µM (inactive)	> 100 µM (inactive)
Cc1cc(O)c(O)c(Oc2cc(C)cc(O)c2O)c1	14.8 µM (inactive)	16.2 µM (inactive)	4.48 µM (inactive)	14.3 µM (inactive)	15 µM (inactive)	6.7 µM (inactive)		16 µM (inactive)	34.2 µM (inactive)	9.79 µM (inactive)	11.1 µM (inactive)	20.3 µM (inactive)	73.1 µM (inactive)	13.2 µM (inactive)	20.8 µM (inactive)	24.5 µM (inactive)	10 µM (inactive)	18.5 µM (inactive)	33.9 µM (inactive)	26.7 µM (inactive)
O=c1cc(-c2ccccc2)[nH]c2cc(F)c(F)cc12	1.21 µM (inactive)	0.824 µM (active)	0.34 µM (active)	0.392 µM (active)	0.385 µM (active)	0.189 µM (active)	0.425 µM (active)	11.5 µM (inactive)	1.89 µM (inactive)	0.692 µM (active)	0.565 µM (active)	1.44 µM (inactive)	0.463 µM (active)	1.97 µM (inactive)	0.998 µM (active)	0.23 µM (active)	0.438 µM (active)	0.805 µM (active)	0.197 µM (active)	
O=C(O)CSCc1cc2c(O)c(c1)Cc1cc(CSCC(=O)O)cc(c1O)Cc1cc(CSCC(=O)O)cc(c1O)Cc1cc(CSCC(=O)O)cc(c1O)C2	> 100 µM (inactive)	> 100 µM (inactive)	> 100 µM (inactive)	> 100 µM (inactive)	> 100 µM (inactive)	> 100 µM (inactive)	> 100 µM (inactive)	> 100 µM (inactive)	> 100 µM (inactive)	> 100 µM (inactive)	> 100 µM (inactive)		> 100 µM (inactive)	> 100 µM (inactive)	> 100 µM (inactive)	> 100 µM (inactive)	> 100 µM (inactive)	> 100 µM (inactive)		> 100 µM (inactive)
O=P1(N2CCOCC2)OCCO1	> 100 µM (inactive)			> 100 µM (inactive)	> 100 µM (inactive)	> 100 µM (inactive)	> 100 µM (inactive)	> 100 µM (inactive)	> 100 µM (inactive)	> 100 µM (inactive)	> 100 µM (inactive)		> 100 µM (inactive)	> 100 µM (inactive)	> 100 µM (inactive)	> 100 µM (inactive)	> 100 µM (inactive)	> 100 µM (inactive)	> 100 µM (inactive)	
CC(=O)N(C(C)=O)n1c(-c2ccccc2)n[nH]c1=O	> 100 µM (inactive)	> 100 µM (inactive)	> 100 µM (inactive)	> 100 µM (inactive)	> 100 µM (inactive)	> 100 µM (inactive)	> 100 µM (inactive)	> 100 µM (inactive)	> 100 µM (inactive)	> 100 µM (inactive)		> 100 µM (inactive)	> 100 µM (inactive)	> 100 µM (inactive)	> 100 µM (inactive)	> 100 µM (inactive)	> 100 µM (inactive)	> 100 µM (inactive)	> 100 µM (inactive)	
O=[N+]([O-])/C(C(Cl)=C(Cl)Cl)=C(\Nc1cccc2cccnc12)Sc1ccccc1	19 µM (inactive)		11.4 µM (inactive)	39.3 µM (inactive)			22.1 µM (inactive)	27.4 µM (inactive)	20.8 µM (inactive)	16.2 µM (inactive)	34.4 µM (inactive)	18.2 µM (inactive)	29.9 µM (inactive)	22.2 µM (inactive)	23.4 µM (inactive)		12.9 µM (inactive)	18.9 µM (inactive)		18.3 µM (inactive)
Cc1c(Cc2ccccc2)n(C(C)OCCN(OC(=O)Oc2ccccc2)C(=O)Oc2ccccc2)c(=O)[nH]c1=O (stereo not drawn)	16 µM (inactive)	16.9 µM (inactive)	19 µM (inactive)	16.1 µM (inactive)	14.5 µM (inactive)	28.6 µM (inactive)	16.9 µM (inactive)	14.4 µM (inactive)	17.2 µM (inactive)	19 µM (inactive)	17.8 µM (inactive)	19.5 µM (inactive)	25.2 µM (inactive)	19.8 µM (inactive)	16.1 µM (inactive)	15.8 µM (inactive)	14.5 µM (inactive)	14.5 µM (inactive)	14.3 µM (inactive)	
CCOC(=O)c1c(-c2ccccc2)c(C)cn1C	> 10 µM (inactive)	> 10 µM (inactive)	> 10 µM (inactive)	> 10 µM (inactive)	> 10 µM (inactive)	> 10 µM (inactive)	> 10 µM (inactive)	> 10 µM (inactive)	> 10 µM (inactive)	> 10 µM (inactive)	> 10 µM (inactive)	0.0125 µM (active)	> 10 µM (inactive)	3.73 µM (inactive)	> 10 µM (inactive)	> 10 µM (inactive)	> 10 µM (inactive)	> 10 µM (inactive)		
O=C(O)c1ccccc1C(=O)c1ccco1	> 100 µM (inactive)	> 100 µM (inactive)	> 100 µM (inactive)	> 100 µM (inactive)	> 100 µM (inactive)	> 100 µM (inactive)		> 100 µM (inactive)	> 100 µM (inactive)	> 100 µM (inactive)	> 100 µM (inactive)		> 100 µM (inactive)	> 100 µM (inactive)	> 100 µM (inactive)	> 100 µM (inactive)	> 100 µM (inactive)	> 100 µM (inactive)	> 100 µM (inactive)	
O=C(N/N=C/C=C/c1ccc([N+](=O)[O-])o1)c1ccc(Br)s1	> 100 µM (inactive)	16.9 µM (inactive)	16.1 µM (inactive)	20.4 µM (inactive)			25.1 µM (inactive)	31.2 µM (inactive)	26.3 µM (inactive)	28.1 µM (inactive)	42.7 µM (inactive)	22.8 µM (inactive)	82.8 µM (inactive)	29.6 µM (inactive)	17 µM (inactive)	15.6 µM (inactive)	13.3 µM (inactive)	21 µM (inactive)	18.6 µM (inactive)	28.4 µM (inactive)
CCc1nc2ccc(C(F)(F)F)cc2[nH]c1=O	> 100 µM (inactive)	> 100 µM (inactive)	> 100 µM (inactive)	> 100 µM (inactive)			> 100 µM (inactive)	44.5 µM (inactive)	> 100 µM (inactive)	> 100 µM (inactive)	> 100 µM (inactive)	50.6 µM (inactive)	> 100 µM (inactive)	> 100 µM (inactive)	> 100 µM (inactive)	> 100 µM (inactive)	> 100 µM (inactive)	61.7 µM (inactive)	> 100 µM (inactive)	
